Reference: US9273028B2, “Heterocyclic tyrosine kinase inhibitors” (Biogen MA Inc., priority 2010, dated 2016)

These compounds were tested against T1, BTK (Homo sapiens, UniProt Q06187) (assay: In vitro BTK kinase assay (BTK-POLYGAT-LS)). Conditions: IC50 (10 uM ATP).
T1 construct: purchased Upstate 14-552
Format: biochemical
Method: In vitro BTK Kinase Assay
The purpose of the BTK in vitro assay is to determine compound potency against BTK through the measurement of IC50. […] For a typical assay, a 24 μL aliquot of a ATP/peptide master mix (final concentration; ATP 10 μM, polyGAT 100 nM) in kinase buffer (10 mM Tris-HCl pH 7.5, 10 mM MgCl2, 200 μM Na3PO4, 5 mM DTT, 0.01% Triton X-100, and 0.2 mg/ml casein) is added to each well. […] The assay is incubated for 30 minutes before being stopped with 28 μL of a 50 mM EDTA solution. […] The plate is covered and incubated for 45 minutes at room temperature.

T1 sequence (Q06187 whole entry): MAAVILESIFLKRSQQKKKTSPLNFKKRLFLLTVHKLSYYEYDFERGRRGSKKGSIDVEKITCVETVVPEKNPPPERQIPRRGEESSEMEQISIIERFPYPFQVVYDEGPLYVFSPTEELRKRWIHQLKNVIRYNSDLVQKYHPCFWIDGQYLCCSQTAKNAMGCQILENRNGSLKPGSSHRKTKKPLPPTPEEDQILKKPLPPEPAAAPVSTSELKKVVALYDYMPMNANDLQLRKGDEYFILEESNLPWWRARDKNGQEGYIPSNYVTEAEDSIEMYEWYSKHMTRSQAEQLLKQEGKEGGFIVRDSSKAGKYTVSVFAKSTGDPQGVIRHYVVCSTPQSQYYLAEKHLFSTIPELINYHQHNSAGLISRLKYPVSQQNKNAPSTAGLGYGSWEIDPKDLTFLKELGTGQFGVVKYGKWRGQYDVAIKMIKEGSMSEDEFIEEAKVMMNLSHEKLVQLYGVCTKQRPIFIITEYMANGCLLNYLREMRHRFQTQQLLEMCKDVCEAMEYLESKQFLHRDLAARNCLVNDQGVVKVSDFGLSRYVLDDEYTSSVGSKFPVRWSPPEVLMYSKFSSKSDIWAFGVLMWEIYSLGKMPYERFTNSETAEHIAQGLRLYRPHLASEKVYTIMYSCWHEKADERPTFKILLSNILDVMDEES

| SMILES | IC50 [nM] |
| --- | --- |
| CN(c1ncnc2[nH]ncc12)C1CC2CC1N(C(=O)CNc1cc(Cl)cc(Cl)c1)C2 (centres unmarked) [Compound 141] | 100 to 999 |
| O=C(CNc1cc(Cl)cc(Cl)c1)N1CCCC(N(CCN2CCOCC2)c2ncnc3[nH]ccc23)C1 (centres unmarked) [Compound 86] | 100 to 999 |
| CC1C(Nc2ncnc3[nH]ccc23)CCCN1C(=O)[C@H](Nc1cc(Cl)cc(Cl)c1)C1CC1 (some centres unmarked) [Compound 51] | 100 to 999 |
| O=C(CNc1cc(C(F)(F)F)cc(C(F)(F)F)c1)N1CCC[C@H](Nc2ncnc3[nH]ncc23)C1 [Compound 185] | 1000 to 10000 |
| CN(c1ncnc2[nH]cnc12)[C@H]1CCCN(C(=O)CNc2cc(Cl)cc(Cl)c2)C1 [Compound 151] | 100 to 999 |
| CCCN(CC(C)C)S(=O)(=O)c1ccccc1NCC(=O)N1CC[C@@H](C)[C@H](Nc2ncnc3[nH]ncc23)C1 [Compound 213] | > 10000 |
| Nc1ncnc(N[C@H]2CCCN(C(=O)CNc3cc(Cl)cc(Cl)c3)C2)c1Cl [Compound 134] | > 10000 |
| O=C(CNc1cc(C(F)(F)F)cc(C(F)(F)F)c1)N1CCC[C@H](Nc2ncnc3[nH]ncc23)C1 [Compound 186] | > 10000 |
| O=C(CNc1cc(Cl)cc(Cl)c1)N1CCC[C@H](N(CCc2ccccc2)c2ncnc3[nH]ccc23)C1 [Compound 119] | > 10000 |
| O=C(CNc1ccccc1Cl)N1CCC[C@H](Nc2ncnc3[nH]ccc23)C1 [Compound 199] | > 10000 |
| Nc1cc(N[C@H]2CCCN(C(=O)CNc3cc(Cl)cc(Cl)c3)C2)ncn1 [Compound 133] | 1000 to 10000 |
| O=C(CNc1cccc(F)c1)N1CCC[C@H](Nc2ncnc3[nH]ncc23)C1 [Compound 182] | > 10000 |
| O=CNc1cnc(Br)cc1N(C=O)[C@H]1CCCN(C(=O)CNc2cc(Cl)cc(Cl)c2)C1 [Compound 120] | > 10000 |
| O=C(CNc1cccc(Cl)c1)N1CCC[C@H](Nc2ncnc3[nH]ncc23)C1 [Compound 201] | 1000 to 10000 |
| CN(c1ncnc2[nH]ccc12)[C@@H]1CCCN(C(=O)CNc2cc(C(F)(F)F)cc(C(F)(F)F)c2)C1 [Compound 166] | > 10000 |
| O=C(CNc1cc(Cl)cc(Cl)c1)N1CCCC(N(CCN2CCCCC2)c2ncnc3[nH]ccc23)C1 (centres unmarked) [Compound 88] | 1000 to 10000 |
| O=C([C@H](Nc1cc(F)cc(Cl)c1)C1CC1)N1CCC[C@H](Nc2ncnc3[nH]ncc23)C1 [Compound 223] | 1000 to 10000 |
| Nc1nccc(N[C@H]2CCCN(C(=O)CNc3cc(Cl)cc(Cl)c3)C2)n1 [Compound 164] | > 10000 |
| O=C(CNc1cc(Cl)cc(Cl)c1)N1CCOCC(Nc2ncnc3[nH]cnc23)C1 (centres unmarked) [Compound 50] | 100 to 999 |
| Nc1ncnc(N[C@@H]2CCCN(C(=O)CNc3cc(Cl)cc(Cl)c3)C2)c1Cl [Compound 8] | 1000 to 10000 |
| O=C(CNc1cc(Cl)cc(Cl)c1)N1CC(Nc2ncnc3[nH]ncc23)Cc2ccccc21 (centres unmarked) [Compound 191] | 100 to 999 |
| O=C(CNc1ccc(C(F)(F)F)cc1)N1CCC[C@H](Nc2ncnc3[nH]ncc23)C1 [Compound 198] | > 10000 |
| O=C(CNc1cc(Cl)cc(Cl)c1)N1CCC[C@H](Nc2ncnc3scnc23)C1 [Compound 115] | > 10000 |

| SMILES | IC50 [nM] |
| --- | --- |
| CC1CCCCC1NCC(=O)N1CCC[C@H](Nc2ncnc3[nH]ccc23)C1 (some centres unmarked) [Compound 140] | > 10000 |
| CC(=O)Nc1cc(N[C@H]2CCCN(C(=O)CNc3cc(Cl)cc(Cl)c3)C2)ncn1 [Compound 109] | > 10000 |
| Nc1nc(N[C@H]2CCCN(C(=O)CNc3cc(Cl)cc(Cl)c3)C2)c2cc[nH]c2n1 [Compound 157] | > 10000 |
| O=C(CNc1cc(Cl)cc(Cl)c1)N1CC[C@H](Nc2ncnc3[nH]ncc23)C1 [Compound 147] | > 10000 |
| Nc1ncnc2c1ncn2C1CCCN(C(=O)CNc2cc(Cl)cc(Cl)c2)C1 (centres unmarked) [Compound 233] | > 10000 |
| CC(C)CN(CC(C)C)S(=O)(=O)c1ccccc1NCC(=O)N1CCC[C@H](Nc2ncnc3[nH]ccc23)C1 [Compound 219] | > 10000 |
| CCN(c1ncnc2[nH]ccc12)C1CCCN(C(=O)CNc2cc(Cl)cc(Cl)c2)C1 (centres unmarked) [Compound 108] | 100 to 999 |
| CCN(c1ncnc2[nH]ccc12)[C@H]1CCCN(C(=O)CNc2cc(Cl)cc(Cl)c2)C1 [Compound 126] | > 10000 |
| O=C(CNc1cc(Cl)cc(Cl)c1)N1CCCC(N(CCc2ccccc2)c2ncnc3[nH]ccc23)C1 (centres unmarked) [Compound 97] | > 10000 |
| CN(c1ncnc2[nH]ncc12)[C@H]1CCCN(C(=O)CNc2cc(Cl)cc(C(F)(F)F)c2)C1 [Compound 145] | 1000 to 10000 |
| Nc1ncnc2c1ccn2C1CCCN(C(=O)CNc2cc(Cl)cc(Cl)c2)C1 (centres unmarked) [Compound 231] | 1000 to 10000 |
| CC1CCCC(NCC(=O)N2CCC[C@H](Nc3ncnc4[nH]ccc34)C2)C1 (some centres unmarked) [Compound 117] | > 10000 |
| NC(=O)c1c(N)ncnc1NC1CCCN(C(=O)CNc2cc(Cl)cc(Cl)c2)C1 (centres unmarked) [Compound 82] | > 10000 |
| O=C(CNc1ccccc1C(F)(F)F)N1CCC[C@H](Nc2ncnc3[nH]ncc23)C1 [Compound 195] | > 10000 |
| CN(c1ncnc2[nH]ncc12)[C@H]1CCN(C(=O)CNc2cc(Cl)cc(Cl)c2)C1 [Compound 130] | > 10000 |
| CCCCC1C(Nc2ncnc3[nH]ccc23)CCCN1C(=O)CNc1cc(Cl)cc(Cl)c1 (centres unmarked) [Compound 41] | 100 to 999 |
| O=C(CNC1CCCCC1)N1CCC[C@H](Nc2ncnc3[nH]ccc23)C1 [Compound 162] | > 10000 |
| O=C(CNc1ccccc1Cl)N1CCC[C@H](Nc2ncnc3[nH]ncc23)C1 [Compound 202] | > 10000 |
| O=C(CNc1cc(Cl)cc(C(F)(F)F)c1)N1CCC[C@H](Nc2ncnc3[nH]ncc23)C1 [Compound 178] | 1000 to 10000 |
| CN1CCN(C(=O)c2cnc3[nH]ccc3c2N[C@@H]2CCCN(C(=O)CNc3cc(Cl)cc(Cl)c3)C2)CC1 [Compound 230] | 100 to 999 |
| O=C(CNc1ccccc1S(=O)(=O)N1CCCCC1)N1CCC[C@@H](Nc2ncnc3[nH]ccc23)C1 [Compound 221] | 100 to 999 |
| CN(c1ncnc2[nH]ncc12)[C@@H]1CCN(C(=O)CNc2cc(Cl)cc(Cl)c2)C1 [Compound 131] | 1000 to 10000 |
| O=C(CNc1cc(Cl)cc(Cl)c1)N1CC[C@@H](Nc2ncnc3[nH]ncc23)C1 [Compound 153] | > 10000 |

More lines, now with the values ahead:

| IC50 [nM] | SMILES |
| --- | --- |
| < 100 | CC1C(Nc2ncnc3[nH]ccc23)CCCN1C(=O)[C@@H](C)Nc1cc(Cl)cc(Cl)c1 (some centres unmarked) [Compound 81] |
| 100 to 999 | O=C(CNc1cc(Cl)cc(Cl)c1)N1CCC[C@@H](Nc2ncnc3[nH]cc(F)c23)C1 [Compound 6] |
| < 100 | NC(=O)c1cnc2[nH]ccc2c1NC1CCCN(C(=O)NCc2cc(Cl)cc(Cl)c2)C1 (centres unmarked) [Compound 224] |
| < 100 | C[C@H]1[C@@H](Nc2ncnc3[nH]ncc23)CCCN1C(=O)CNc1cc(Cl)cc(Cl)c1 [Compound 31] |
| < 100 | CC1C(Nc2ncnc3[nH]ncc23)CCCN1C(=O)CNc1ccccc1S(=O)(=O)c1ccccc1 (centres unmarked) [Compound 63] |
| < 100 | CCCN(c1ncnc2[nH]ccc12)C1CCCN(C(=O)CNc2cc(Cl)cc(Cl)c2)C1 (centres unmarked) [Compound 106] |
| < 100 | CC1C(Nc2ncnc3[nH]ccc23)CCCN1C(=O)CNc1cc(Cl)cc(C(F)(F)F)c1 (centres unmarked) [Compound 80] |
| < 100 | O=C(CNc1cc(Cl)cc(C(F)(F)F)c1)N1CCCC(Nc2ncnc3[nH]ccc23)C1C(F)(F)F (centres unmarked) [Compound 17] |
| < 100 | CC[C@@H](Nc1cc(Cl)cc(Cl)c1)C(=O)N1CCCC(Nc2ncnc3[nH]ncc23)C1C (some centres unmarked) [Compound 65] |
| < 100 | O=C(CNc1ccc(F)c(Cl)c1)N1CCC2CCN(c3ncnc4[nH]ccc34)C2C1 (centres unmarked) [Compound 77] |
| < 100 | CC1CC2CCN(C(=O)CNc3cc(Cl)cc(Cl)c3)CC2N1c1ncnc2[nH]ccc12 (centres unmarked) [Compound 74] |
| < 100 | CC1CC(N(C)c2ncnc3[nH]ncc23)CN(C(=O)CNc2cc(Cl)cc(Cl)c2)C1 (centres unmarked) [Compound 87] |
| < 100 | O=C(CNc1cc(Cl)cc(Cl)c1)N1CCC[C@H](Nc2ccnc3[nH]ccc23)C1 [Compound 169] |
| < 100 | C[C@@H](Nc1cc(Cl)cc(Cl)c1)C(=O)N1CCC2CCN(c3ncnc4[nH]ccc34)C2C1 (some centres unmarked) [Compound 56] |
| < 100 | CN(c1ncnc2[nH]ccc12)C1CCCN(C(=O)CNc2cc(F)cc(Cl)c2)C1C(F)(F)F (centres unmarked) [Compound 9] |
| < 100 | CC1C(Nc2ncnc(N)c2F)CCCN1C(=O)CNc1cc(Cl)cc(Cl)c1 (centres unmarked) [Compound 62] |
| < 100 | CC1C(Nc2ncnc3[nH]ncc23)CCCN1C(=O)CNc1ccccc1S(=O)(=O)C1CCCC1 (centres unmarked) [Compound 69] |
| < 100 | CC1C(Nc2ncnc3[nH]ncc23)CCCN1C(=O)[C@@H](C)Nc1cc(Cl)cc(Cl)c1 (some centres unmarked) [Compound 60] |
| < 100 | O=C(CNc1cc(Cl)cc(Cl)c1)N1CC2CC(Nc3ncnc4[nH]ncc34)C1C2 (centres unmarked) [Compound 171] |
| < 100 | Nc1cc(N2CCC3CCN(C(=O)CNc4cc(Cl)cc(Cl)c4)CC32)ncn1 (centres unmarked) [Compound 159] |
| < 100 | CC1C(Nc2ncnc3[nH]ccc23)CCCN1C(=O)CNc1ccccc1S(=O)(=O)c1ccccc1 (centres unmarked) [Compound 75] |
| < 100 | O=C(CNc1cc(Cl)cc(Cl)c1)N1CCCC(N(CCO)c2ncnc3[nH]ccc23)C1 (centres unmarked) [Compound 43] |
| < 100 | CCC[C@@H](Nc1cc(Cl)cc(Cl)c1)C(=O)N1CCCC(Nc2ncnc3[nH]ccc23)C1C (some centres unmarked) [Compound 64] |
| < 100 | CCC1CC2CCN(C(=O)CNc3cc(Cl)cc(Cl)c3)CC2N1c1ncnc2[nH]ccc12 (centres unmarked) [Compound 42] |
| < 100 | CC[C@@H](Nc1cc(Cl)cc(Cl)c1)C(=O)N1CCCC(Nc2ncnc3[nH]ccc23)C1C (some centres unmarked) [Compound 72] |
| < 100 | NC(=O)c1cnc2[nH]ccc2c1NC1CCCN(C(=O)CNc2cc(Cl)cc(Cl)c2)C1C(F)(F)F (centres unmarked) [Compound 228] |
| < 100 | CC1C(Nc2ncnc3[nH]ncc23)CCCN1C(=O)CNc1cc(Cl)cc(C(F)(F)F)c1 (centres unmarked) [Compound 58] |
| < 100 | O=C(CNc1cc(Cl)cc(Cl)c1)N1CCC2CCN(c3ncnc4[nH]cnc34)C2C1 (centres unmarked) [Compound 111] |
